The molecules below were run on Veronica persica (assay: Herbicidal activity against Veronica persica at 500 g/ha after 2 weeks). Details: not given.
Format: functional

SMILES | Activity
Cc1ccc(Cl)cc1NC(=O)c1nc(C)c(C)nc1C(=O)NCC(C)C | 95%
CCCNC(=O)c1nc(C)c(C)nc1C(=O)Nc1cc(Cl)ccc1C | 70%
CCCNC(=O)c1nc(C)c(C)nc1C(=O)Nc1cc(F)ccc1C | 95%
CCCCNC(=O)c1nc(C)c(C)nc1C(=O)Nc1cc(F)ccc1C | 95%

These molecules were tested on Galium spurium (assay: Herbicidal activity against Galium spurium var. echinospermon (Wally.) Hayek at 500 g/ha after 2 weeks). Details: not given.
Format: functional

SMILES | Activity
Cc1ccc(Cl)cc1NC(=O)c1nc(C)c(C)nc1C(=O)NCC(C)C | <10%
CCCNC(=O)c1nc(C)c(C)nc1C(=O)Nc1cc(Cl)ccc1C | <10%
CCCNC(=O)c1nc(C)c(C)nc1C(=O)Nc1cc(F)ccc1C | <10%
CCCCNC(=O)c1nc(C)c(C)nc1C(=O)Nc1cc(F)ccc1C | <10%

These molecules were tested on Xanthium strumarium (assay: Herbicidal activity against Xanthium strumarium (cocklebur) 500 g/ha after 2 weeks). Details: not given.
Format: functional

SMILES | Activity
Cc1ccc(Cl)cc1NC(=O)c1nc(C)c(C)nc1C(=O)NCC(C)C | <10%
CCCNC(=O)c1nc(C)c(C)nc1C(=O)Nc1cc(Cl)ccc1C | 50%
CCCNC(=O)c1nc(C)c(C)nc1C(=O)Nc1cc(F)ccc1C | 95%
CCCCNC(=O)c1nc(C)c(C)nc1C(=O)Nc1cc(F)ccc1C | <10%

Each molecule was assayed on Abutilon theophrasti (assay: Herbicidal activity against Abutilon theophrasti (velvetleaf) at 500 g/ha after 2 weeks). Details: not given.
Format: functional

SMILES | Activity
Cc1ccc(Cl)cc1NC(=O)c1nc(C)c(C)nc1C(=O)NCC(C)C | <10%
CCCNC(=O)c1nc(C)c(C)nc1C(=O)Nc1cc(Cl)ccc1C | <10%
CCCNC(=O)c1nc(C)c(C)nc1C(=O)Nc1cc(F)ccc1C | 30%
CCCCNC(=O)c1nc(C)c(C)nc1C(=O)Nc1cc(F)ccc1C | <10%

The molecules below were run on Avena fatua (assay: Herbicidal activity against Avena fatua at 500 g/ha after 2 weeks). Details: not given.
Format: functional

SMILES | Activity
Cc1ccc(Cl)cc1NC(=O)c1nc(C)c(C)nc1C(=O)NCC(C)C | <10%
CCCNC(=O)c1nc(C)c(C)nc1C(=O)Nc1cc(Cl)ccc1C | <10%
CCCNC(=O)c1nc(C)c(C)nc1C(=O)Nc1cc(F)ccc1C | <10%
CCCCNC(=O)c1nc(C)c(C)nc1C(=O)Nc1cc(F)ccc1C | <10%

What follows are molecules tested on Echinochloa crus-galli (assay: Herbicidal activity against Echinochloa crus-galli (barnyard grass) at 500 g/ha after 2 weeks). Details: not given.
Format: functional

SMILES | Activity
Cc1ccc(Cl)cc1NC(=O)c1nc(C)c(C)nc1C(=O)NCC(C)C | 30%
CCCNC(=O)c1nc(C)c(C)nc1C(=O)Nc1cc(Cl)ccc1C | <10%
CCCNC(=O)c1nc(C)c(C)nc1C(=O)Nc1cc(F)ccc1C | 10%
CCCCNC(=O)c1nc(C)c(C)nc1C(=O)Nc1cc(F)ccc1C | 10%

These molecules were tested on Glycine max (assay: Herbicidal activity against Glycine max (soybean) at 500 g/ha after 2 weeks). Details: in vivo, 336 h.
Format: organism-based

SMILES | Activity
Cc1ccc(Cl)cc1NC(=O)c1nc(C)c(C)nc1C(=O)NCC(C)C | < 10%
CCCNC(=O)c1nc(C)c(C)nc1C(=O)Nc1cc(Cl)ccc1C | < 10%
CCCNC(=O)c1nc(C)c(C)nc1C(=O)Nc1cc(F)ccc1C | < 10%
CCCCNC(=O)c1nc(C)c(C)nc1C(=O)Nc1cc(F)ccc1C | < 10%

What follows are molecules tested on Triticum aestivum (assay: Herbicidal activity against Triticum aestivum (wheat) at 500 g/ha after 2 weeks). Details: in vivo, 336 h.
Format: ADME, organism-based

SMILES | Activity
Cc1ccc(Cl)cc1NC(=O)c1nc(C)c(C)nc1C(=O)NCC(C)C | < 10%
CCCNC(=O)c1nc(C)c(C)nc1C(=O)Nc1cc(Cl)ccc1C | < 10%
CCCNC(=O)c1nc(C)c(C)nc1C(=O)Nc1cc(F)ccc1C | < 10%
CCCCNC(=O)c1nc(C)c(C)nc1C(=O)Nc1cc(F)ccc1C | 30%

The molecules below were run on Veronica persica (assay: Herbicidal activity against Veronica persica at 250 g/ha after 2 weeks). Details: not given.
Format: functional

SMILES | Activity
Cc1ccc(Cl)cc1NC(=O)c1nc(C)c(C)nc1C(=O)NCC(C)C | 30%
CCCNC(=O)c1nc(C)c(C)nc1C(=O)Nc1cc(Cl)ccc1C | 95%
CCCNC(=O)c1nc(C)c(C)nc1C(=O)Nc1cc(F)ccc1C | 95%
CCCCNC(=O)c1nc(C)c(C)nc1C(=O)Nc1cc(F)ccc1C | 95%

The molecules below were run on Galium spurium (assay: Herbicidal activity against Galium spurium var. echinospermon (Wally.) Hayek at 250 g/ha after 2 weeks). Details: not given.
Format: functional

SMILES | Activity
Cc1ccc(Cl)cc1NC(=O)c1nc(C)c(C)nc1C(=O)NCC(C)C | <10%
CCCNC(=O)c1nc(C)c(C)nc1C(=O)Nc1cc(Cl)ccc1C | <10%
CCCNC(=O)c1nc(C)c(C)nc1C(=O)Nc1cc(F)ccc1C | <10%
CCCCNC(=O)c1nc(C)c(C)nc1C(=O)Nc1cc(F)ccc1C | <10%

Each molecule was assayed on Xanthium strumarium (assay: Herbicidal activity against Xanthium strumarium (cocklebur) 250 g/ha after 2 weeks). Details: not given.
Format: functional

SMILES | Activity
Cc1ccc(Cl)cc1NC(=O)c1nc(C)c(C)nc1C(=O)NCC(C)C | <10%
CCCNC(=O)c1nc(C)c(C)nc1C(=O)Nc1cc(Cl)ccc1C | <10%
CCCNC(=O)c1nc(C)c(C)nc1C(=O)Nc1cc(F)ccc1C | 30%
CCCCNC(=O)c1nc(C)c(C)nc1C(=O)Nc1cc(F)ccc1C | <10%

The molecules below were run on Abutilon theophrasti (assay: Herbicidal activity against Abutilon theophrasti (velvetleaf) at 250 g/ha after 2 weeks). Details: not given.
Format: functional

SMILES | Activity
Cc1ccc(Cl)cc1NC(=O)c1nc(C)c(C)nc1C(=O)NCC(C)C | <10%
CCCNC(=O)c1nc(C)c(C)nc1C(=O)Nc1cc(Cl)ccc1C | <10%
CCCNC(=O)c1nc(C)c(C)nc1C(=O)Nc1cc(F)ccc1C | 30%
CCCCNC(=O)c1nc(C)c(C)nc1C(=O)Nc1cc(F)ccc1C | <10%

The molecules below were run on Echinochloa crus-galli (assay: Herbicidal activity against Echinochloa crus-galli (barnyard grass) at 250 g/ha after 2 weeks). Details: not given.
Format: functional

SMILES | Activity
Cc1ccc(Cl)cc1NC(=O)c1nc(C)c(C)nc1C(=O)NCC(C)C | <10%
CCCNC(=O)c1nc(C)c(C)nc1C(=O)Nc1cc(Cl)ccc1C | <10%
CCCNC(=O)c1nc(C)c(C)nc1C(=O)Nc1cc(F)ccc1C | <10%
CCCCNC(=O)c1nc(C)c(C)nc1C(=O)Nc1cc(F)ccc1C | <10%

What follows are molecules tested on Avena fatua (assay: Herbicidal activity against Avena fatua at 250 g/ha after 2 weeks). Details: not given.
Format: functional

SMILES | Activity
Cc1ccc(Cl)cc1NC(=O)c1nc(C)c(C)nc1C(=O)NCC(C)C | <10%
CCCNC(=O)c1nc(C)c(C)nc1C(=O)Nc1cc(Cl)ccc1C | <10%
CCCNC(=O)c1nc(C)c(C)nc1C(=O)Nc1cc(F)ccc1C | <10%
CCCCNC(=O)c1nc(C)c(C)nc1C(=O)Nc1cc(F)ccc1C | <10%

The molecules below were run on Glycine max (assay: Herbicidal activity against Glycine max (soybean) at 250 g/ha after 2 weeks). Details: in vivo, 336 h.
Format: organism-based

SMILES | Activity
Cc1ccc(Cl)cc1NC(=O)c1nc(C)c(C)nc1C(=O)NCC(C)C | < 10%
CCCNC(=O)c1nc(C)c(C)nc1C(=O)Nc1cc(Cl)ccc1C | < 10%
CCCNC(=O)c1nc(C)c(C)nc1C(=O)Nc1cc(F)ccc1C | < 10%
CCCCNC(=O)c1nc(C)c(C)nc1C(=O)Nc1cc(F)ccc1C | < 10%

Each molecule was assayed on Triticum aestivum (assay: Herbicidal activity against Triticum aestivum (wheat) at 250 g/ha after 2 weeks). Details: in vivo, 336 h.
Format: organism-based

SMILES | Activity
Cc1ccc(Cl)cc1NC(=O)c1nc(C)c(C)nc1C(=O)NCC(C)C | < 10%
CCCNC(=O)c1nc(C)c(C)nc1C(=O)Nc1cc(Cl)ccc1C | < 10%
CCCNC(=O)c1nc(C)c(C)nc1C(=O)Nc1cc(F)ccc1C | < 10%
CCCCNC(=O)c1nc(C)c(C)nc1C(=O)Nc1cc(F)ccc1C | < 10%

These molecules were tested on Veronica persica (assay: Herbicidal activity against Veronica persica at 5000 g/ha after 2 weeks). Details: not given.
Format: functional

SMILES | Activity
Cc1ccc(Cl)cc1NC(=O)c1nc(C)c(C)nc1C(=O)NCC(C)C | 95%
CCCNC(=O)c1nc(C)c(C)nc1C(=O)Nc1cc(Cl)ccc1C | 95%
CCCNC(=O)c1nc(C)c(C)nc1C(=O)Nc1cc(F)ccc1C | 95%
CCCCNC(=O)c1nc(C)c(C)nc1C(=O)Nc1cc(F)ccc1C | 95%

These molecules were tested on Galium spurium (assay: Herbicidal activity against Galium spurium var. echinospermon (Wally.) Hayek at 5000 g/ha after 2 weeks). Details: not given.
Format: functional

SMILES | Activity
Cc1ccc(Cl)cc1NC(=O)c1nc(C)c(C)nc1C(=O)NCC(C)C | 95%
CCCNC(=O)c1nc(C)c(C)nc1C(=O)Nc1cc(Cl)ccc1C | 50%
CCCNC(=O)c1nc(C)c(C)nc1C(=O)Nc1cc(F)ccc1C | 95%
CCCCNC(=O)c1nc(C)c(C)nc1C(=O)Nc1cc(F)ccc1C | 30%

What follows are molecules tested on Xanthium strumarium (assay: Herbicidal activity against Xanthium strumarium (cocklebur) 5000 g/ha after 2 weeks). Details: not given.
Format: functional

SMILES | Activity
Cc1ccc(Cl)cc1NC(=O)c1nc(C)c(C)nc1C(=O)NCC(C)C | 95%
CCCNC(=O)c1nc(C)c(C)nc1C(=O)Nc1cc(Cl)ccc1C | 30%
CCCNC(=O)c1nc(C)c(C)nc1C(=O)Nc1cc(F)ccc1C | 95%
CCCCNC(=O)c1nc(C)c(C)nc1C(=O)Nc1cc(F)ccc1C | 50%

Each molecule was assayed on Abutilon theophrasti (assay: Herbicidal activity against Abutilon theophrasti (velvetleaf) at 5000 g/ha after 2 weeks). Details: not given.
Format: functional

SMILES | Activity
Cc1ccc(Cl)cc1NC(=O)c1nc(C)c(C)nc1C(=O)NCC(C)C | 95%
CCCNC(=O)c1nc(C)c(C)nc1C(=O)Nc1cc(Cl)ccc1C | 95%
CCCNC(=O)c1nc(C)c(C)nc1C(=O)Nc1cc(F)ccc1C | 95%
CCCCNC(=O)c1nc(C)c(C)nc1C(=O)Nc1cc(F)ccc1C | 95%

Each molecule was assayed on Echinochloa crus-galli (assay: Herbicidal activity against Echinochloa crus-galli (barnyard grass) at 5000 g/ha after 2 weeks). Details: not given.
Format: functional

SMILES | Activity
Cc1ccc(Cl)cc1NC(=O)c1nc(C)c(C)nc1C(=O)NCC(C)C | 95%
CCCNC(=O)c1nc(C)c(C)nc1C(=O)Nc1cc(Cl)ccc1C | 50%
CCCNC(=O)c1nc(C)c(C)nc1C(=O)Nc1cc(F)ccc1C | 30%
CCCCNC(=O)c1nc(C)c(C)nc1C(=O)Nc1cc(F)ccc1C | 70%

What follows are molecules tested on Avena fatua (assay: Herbicidal activity against Avena fatua at 5000 g/ha after 2 weeks). Details: not given.
Format: functional

SMILES | Activity
Cc1ccc(Cl)cc1NC(=O)c1nc(C)c(C)nc1C(=O)NCC(C)C | 95%
CCCNC(=O)c1nc(C)c(C)nc1C(=O)Nc1cc(Cl)ccc1C | <10%
CCCNC(=O)c1nc(C)c(C)nc1C(=O)Nc1cc(F)ccc1C | 10%
CCCCNC(=O)c1nc(C)c(C)nc1C(=O)Nc1cc(F)ccc1C | <10%

What follows are molecules tested on Glycine max (assay: Herbicidal activity against Glycine max (soybean) at 5000 g/ha after 2 weeks). Details: in vivo, 336 h.
Format: organism-based

SMILES | Activity
Cc1ccc(Cl)cc1NC(=O)c1nc(C)c(C)nc1C(=O)NCC(C)C | < 10%
CCCNC(=O)c1nc(C)c(C)nc1C(=O)Nc1cc(Cl)ccc1C | < 10%
CCCNC(=O)c1nc(C)c(C)nc1C(=O)Nc1cc(F)ccc1C | < 10%
CCCCNC(=O)c1nc(C)c(C)nc1C(=O)Nc1cc(F)ccc1C | < 10%

What follows are molecules tested on Triticum aestivum (assay: Herbicidal activity against Triticum aestivum (wheat) at 5000 g/ha after 2 weeks). Details: in vivo, 336 h.
Format: ADME, organism-based

SMILES | Activity
Cc1ccc(Cl)cc1NC(=O)c1nc(C)c(C)nc1C(=O)NCC(C)C | 70%
CCCNC(=O)c1nc(C)c(C)nc1C(=O)Nc1cc(Cl)ccc1C | 30%
CCCNC(=O)c1nc(C)c(C)nc1C(=O)Nc1cc(F)ccc1C | 30%
CCCCNC(=O)c1nc(C)c(C)nc1C(=O)Nc1cc(F)ccc1C | 30%
